Measurements from patent US20180057505A1, “BICYCLIC HETEROARYL COMPOUNDS USEFUL AS INHIBITORS OF THE PAR-2 SIGNALING PATHWAY” (VERTEX PHARMACEUTICALS INCORPORATED, priority 2015, published 2018).

Tests used:
Format in all cases: cell-based
PAR2 (HT-29 cells) [1] = biological target: T1, PAR2 (HT-29 cells) (Homo sapiens, UniProt P55085); assay: Ca FLIPR TETRA assay, ANTAGONIST mode, activator 8 μM SLIGKV; details: for IC50: HT-29 cells, activator 8 μM SLIGKV, maximal antagonist concentration per Method (A: 0.1, 1 or 2 μM; B: 50 μM); for SLIGKV, % @ 50: @ 50 (μM)
T1 construct: host or cells: HT-29
T1 sequence (P55085 26-397): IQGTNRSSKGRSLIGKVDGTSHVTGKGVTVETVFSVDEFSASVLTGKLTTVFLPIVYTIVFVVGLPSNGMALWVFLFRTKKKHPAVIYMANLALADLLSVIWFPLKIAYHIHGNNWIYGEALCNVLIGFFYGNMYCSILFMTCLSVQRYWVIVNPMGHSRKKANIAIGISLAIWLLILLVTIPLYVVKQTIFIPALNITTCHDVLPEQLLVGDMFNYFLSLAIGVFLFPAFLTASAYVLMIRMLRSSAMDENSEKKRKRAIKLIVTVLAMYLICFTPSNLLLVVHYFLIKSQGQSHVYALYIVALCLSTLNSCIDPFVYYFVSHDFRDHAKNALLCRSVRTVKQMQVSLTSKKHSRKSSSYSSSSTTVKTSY
Procedure: (§1) Protocol for Testing PAR2 Compounds in ANTAGONIST Mode Using the Ca FLIPR^TETRA Assay (384 Well).
(§2) 23000 HT-29 cells (ATCC# HTB-38) were plated in 384-well black, transparent-flat bottom plates and incubated in 25 uL of 1% FBS/McCoy's media ON at 37° C. under an atmosphere of 5% CO2. The following day, 25 uL FLIPR calcium 5 Molecular Devices assay reagent (Cat: R-8186) was added. Plates were incubated at 37° C. and r. t. for 45 min and 15 min, respectively. Compounds dilutions were prepared in 100% DMSO using a Biomek FX and diluted 20-fold in HBSS and then 5.5 uL was added directly to the cells by the FLIPR^TETRA (10× dilution) using FLIPR Tetra Pipette tips, black, non-sterile, 384 Molecular Devices (Cat: 9000-0764).
(§3) A first read was performed to determine whether the test compounds on their own can activate Ca^2+ responses. The cells were incubated with the compounds for 30 min at r. t. and then read in ANTAGONIST mode in the same plate by stimulating with 6.2 uL of a fixed concentration of the activator: final concentrations 8 μM SLIGKV, 1 U/mL Thrombin, 3.1 U/mL trypsin, or 0.6 μM UTP.

[2] = test system: Thrombin-stimulated Ca2+ response in HT-29 cells; assay: Ca FLIPR TETRA assay, ANTAGONIST mode, activator 1 U/mL Thrombin; details: for IC50: HT-29 cells, activator 1 U/mL Thrombin
Procedure: as §1, §2, §3

PAR2 (HT-29 cells) [3] = biological target: T1, PAR2 (HT-29 cells); assay: Ca FLIPR TETRA assay, ANTAGONIST mode, activator 3.1 U/mL trypsin; details: for IC50: HT-29 cells, activator 3.1 U/mL trypsin, maximal antagonist concentration per Method (A: 0.1, 1 or 2 μM; B: 50 μM); for Trypsin, % @ 50: @ 50 (μM)
Procedure: as §1, §2, §3

[4] = test system: UTP-stimulated Ca2+ response in HT-29 cells; assay: Ca FLIPR TETRA assay, ANTAGONIST mode, activator 0.6 μM UTP; details: for IC50: HT-29 cells, activator 0.6 μM UTP; for inhibition at 50 µM: HT-29
Procedure: as §1, §2, §3

Row | SMILES | IC50 (PAR2 (HT-29 cells) [1]) [µM] | IC50 ([2]; Homo sapiens) [µM] | IC50 (PAR2 (HT-29 cells) [3]) [µM] | IC50 ([4]; Homo sapiens) [µM] | SLIGKV, % @ 50 (PAR2 (HT-29 cells) [1]) [% @ 50] | IC50 [2] [µM] | Trypsin, % @ 50 (PAR2 (HT-29 cells) [3]) [% @ 50] | IC50 [4] [µM] | Thrombin, % @ 50 ([2]; @ 50 (μM)) [% @ 50] | inhibition at 50 µM ([4]; Homo sapiens) [%]
1 | CC(C)c1cc(-c2ccc(F)cc2)nc2cc(C(=O)N3CCN(C(=O)c4ccn[nH]4)CC3(C)C)oc12 [Example I-65] | 0.01 | 2.7 | 0.016 | 2.8 |  |  |  |  |  | 
2 | CO[C@@H](C(=O)N1CCN(C(=O)c2cc3nc(-c4ccc(F)cc4)cc(C(C)C)c3o2)C(C)(C)C1)c1ccccc1 [Example I-66] | 0.013 | > 50 | 0.015 | > 50 |  |  |  |  |  | 
3 | CC(C)c1cc(-c2ccc(F)cc2)nc2cc(C(=O)N3CCN(C(=O)C4CCCC4)CC3(C)C)oc12 [Example I-71] | 0.0026 | 35 | 0.0047 | 36 |  |  |  |  |  | 
4 | CC(C)c1cc(-c2ccc(F)cc2)nc2cc(C(=O)N3CCN(C(=O)C4CC4(F)F)CC3(C)C)oc12 (centres unmarked) [Example I-72] | 0.0023 | 14 | 0.0031 | 13 |  |  |  |  |  | 
5 | CC(C)c1cc(-c2ccc(F)cc2)nc2cc(C(=O)N3CCN(C(=O)c4ccon4)CC3(C)C)oc12 [Example I-73] | 0.0024 | 8.5 | 0.0042 | 17 |  |  |  |  |  | 
6 | CC(C)c1cc(-c2ccc(F)cc2)nc2cc(C(=O)N3CCN(C(=O)OC(C)(C)C)CC3)oc12 [Example I-77] |  | > 50 | 23 | > 50 | 64 |  |  |  |  | 
7 | CC(C)c1cc(-c2ccc(F)cc2)nc2cc(C(=O)N3CCN(C(=O)OC(C)(C)C)C[C@@H]3C)oc12 [Example I-79] | 1.7 |  |  | > 50 |  |  | 60 |  | 26 | 
8 | CCC(CC)C(=O)N1CCN(C(=O)c2cc3nc(-c4ccc(F)cc4)cc(C(C)C)c3o2)C[C@@H]1C [Example I-82] | 0.18 | > 50 |  | 47 |  |  | 70 |  |  | 
9 | CO[C@@H](C(=O)N1CCN(C(=O)c2cc3nc(-c4ccc(F)cc4)cc(C(C)C)c3o2)C[C@@H]1C)c1ccccc1 [Example I-84] | 0.0063 | 50 | 0.029 | > 25 |  |  |  |  |  | 
10 | CC(C)c1cc(-c2ccc(F)cc2)nc2cc(C(=O)N3CCN(C(=O)C(C)(C)O)[C@@H](C)C3)oc12 [Example I-87] | 3.7 | 19 | 3.8 | 16 |  |  |  |  |  | 
11 | CC(C)c1cc(-c2ccc(F)cc2)nc2cc(C(=O)N3CCN(C(=O)C4CCCCO4)[C@@H](C)C3)oc12 (some centres unmarked) [Example I-88] | 0.16 | 17 | 0.34 | 17 |  |  |  |  |  | 
12 | CC(C)c1cc(-c2ccc(F)cc2)nc2cc(C(=O)N3CCN(C(=O)C4(O)CCOCC4)[C@@H](C)C3)oc12 [Example I-91] | 3.3 | 9.4 | 3.8 | 11 |  |  |  |  |  | 
13 | CC(C)c1cc(-c2ccc(F)cc2)nc2cc(C(=O)N3CCN(C(=O)C4(O)CCC4)CC3)oc12 [Example I-92] | 4.7 |  | 6.2 |  |  | 7.9 |  | 7.4 |  | 
14 | CC(C)c1cc(-c2ccc(F)cc2)nc2cc(C(=O)N3CCN(C(=O)[C@H](O)CC(C)(C)C)CC3)oc12 [Example I-94] | 1.2 | 6.7 | 0.62 |  |  |  |  |  |  | 74
15 | CC(C)c1cc(-c2ccc(F)cc2)nc2cc(C(=O)N3CCN(C(=O)C(C)(C)O)CC3)oc12 [Example I-96] | 13 | 17 | 12 | 14 |  |  |  |  |  | 
16 | CC(C)c1cc(-c2ccc(F)cc2)nc2cc(C(=O)N3CCN(C(=O)C4(O)CCC4)C[C@H]3C)oc12 [Example I-97] | 4.1 | 18 | 5.1 | 15 |  |  |  |  |  | 

Further lines, with some results ahead:

Row | IC50 (PAR2 (HT-29 cells) [1]) [µM] | IC50 ([2]; Homo sapiens) [µM] | IC50 (PAR2 (HT-29 cells) [3]) [µM] | IC50 ([4]; Homo sapiens) [µM] | SLIGKV, % @ 50 (PAR2 (HT-29 cells) [1]) [% @ 50] | IC50 [2] [µM] | Trypsin, % @ 50 (PAR2 (HT-29 cells) [3]) [% @ 50] | IC50 [4] [µM] | SMILES | Thrombin, % @ 50 ([2]; @ 50 (μM)) [% @ 50] | inhibition at 50 µM ([4]; Homo sapiens) [%]
17 | 0.04 | 4.7 | 0.039 | 5.2 |  |  |  |  | CC(C)c1cc(-c2ccc(F)cc2)nc2cc(C(=O)N3CCN(C(=O)CC(C)(C)O)CC3(C)C)oc12 [Example I-62] |  | 
18 | 0.062 | 18 | 0.11 | 19 |  |  |  |  | CO[C@H](C)C(=O)N1CCN(C(=O)c2cc3nc(-c4ccc(F)cc4)cc(C(C)C)c3o2)C(C)(C)C1 [Example I-63] |  | 
19 | 0.0045 | 30 | 0.006 | 21 |  |  |  |  | CC(C)c1cc(-c2ccc(F)cc2)nc2cc(C(=O)N3CCN(C(=O)C4CCCCO4)CC3(C)C)oc12 (centres unmarked) [Example I-64] |  | 
20 | 0.0052 | > 50 | 0.0074 | > 50 |  |  |  |  | CC(Oc1ccccc1)C(=O)N1CCN(C(=O)c2cc3nc(-c4ccc(F)cc4)cc(C(C)C)c3o2)C(C)(C)C1 (centres unmarked) [Example I-67] |  | 
21 | 0.01 | 29 | 0.026 | 21 |  |  |  |  | CC(C)c1cc(-c2ccc(F)cc2)nc2cc(C(=O)N3CCN(C(=O)C(C)(O)C(F)(F)F)CC3(C)C)oc12 (centres unmarked) [Example I-68] |  | 
22 | 0.032 | 37 | 0.052 | > 32 |  |  |  |  | CCC(O)(CC)C(=O)N1CCN(C(=O)c2cc3nc(-c4ccc(F)cc4)cc(C(C)C)c3o2)C(C)(C)C1 [Example I-69] |  | 
23 | 0.017 | 15 | 0.023 | 16 |  |  |  |  | CC(C)c1cc(-c2ccc(F)cc2)nc2cc(C(=O)N3CCN(C(=O)C4(O)CC4)CC3(C)C)oc12 [Example I-70] |  | 
24 | 0.0053 | 11 | 0.0077 | 13 |  |  |  |  | CC(C)c1cc(-c2ccc(F)cc2)nc2cc(C(=O)N3CCN(C(=O)[C@H](O)C(C)C)CC3(C)C)oc12 [Example I-74] |  | 
25 | 0.024 | 31 | 0.14 | 23 |  |  |  |  | CC(C)c1cc(-c2ccc(F)cc2)nc2cc(C(=O)N3CCN(C(=O)[C@H]4CCCO4)CC3(C)C)oc12 [Example I-75] |  | 
26 |  |  |  |  | 70 | > 50 | 65 | > 50 | CC(C)c1cc(-c2ccc(F)cc2)nc2cc(C(=O)N3CCN(C(=O)OC(C)(C)C)C[C@H]3C)oc12 [Example I-78] |  | 
27 | 1.6 | 19 | 4.7 | 20 |  |  |  |  | CC(C)c1cc(-c2ccc(F)cc2)nc2cc(C(=O)N3CCN(C(=O)C4CCOC4)[C@@H](C)C3)oc12 (some centres unmarked) [Example I-80] |  | 
28 | 0.022 | > 50 |  |  |  |  | 66 |  | CC(C)c1cc(-c2ccc(F)cc2)nc2cc(C(=O)N3CCN(C(=O)C4CCCC4)[C@@H](C)C3)oc12 [Example I-81] |  | 46
29 | 0.0045 | 11 | 0.0078 | 29 |  |  |  |  | CC(C)c1cc(-c2ccc(F)cc2)nc2cc(C(=O)N3CCN(C(=O)C(O)c4ccc(F)cc4)[C@@H](C)C3)oc12 (some centres unmarked) [Example I-83] |  | 
30 | 0.03 | > 50 | 0.25 | > 50 |  |  |  |  | CC(Oc1ccccc1)C(=O)N1CCN(C(=O)c2cc3nc(-c4ccc(F)cc4)cc(C(C)C)c3o2)C[C@@H]1C (some centres unmarked) [Example I-85] |  | 
31 | 0.39 | > 50 | 0.53 |  |  |  |  |  | CC(C)c1cc(-c2ccc(F)cc2)nc2cc(C(=O)N3CCN(C(=O)c4ccno4)[C@@H](C)C3)oc12 [Example I-86] |  | 60
32 | 1 | 13 | 1.1 | 11 |  |  |  |  | CC(C)c1cc(-c2ccc(F)cc2)nc2cc(C(=O)N3CCN(C(=O)C4(O)CCC4)[C@@H](C)C3)oc12 [Example I-89] |  | 
33 | 0.0026 | > 50 | 0.0072 | 42 |  |  |  |  | CC(C)c1cc(-c2ccc(F)cc2)nc2cc(C(=O)N3CCN(C(=O)[C@H](O)CC(C)(C)C)[C@@H](C)C3)oc12 [Example I-90] |  | 
34 | 18 | 25 | 16 | 29 |  |  |  |  | CC(C)c1cc(-c2ccc(F)cc2)nc2cc(C(=O)N3CCN(C(=O)[C@@H](C)O)CC3)oc12 [Example I-93] |  | 
35 | 10 | 15 | 8.9 | 14 |  |  |  |  | CC(C)c1cc(-c2ccc(F)cc2)nc2cc(C(=O)N3CCN(C(=O)C4(O)CCOCC4)CC3)oc12 [Example I-95] |  | 
